Assays:
Test in all cases: relative viability (nuclei count vs DMSO), 5 days (fraction); higher = more cells survive
Axitinib + Palbociclib = compound: CNC(=O)c1ccccc1Sc1ccc2c(/C=C/c3ccccn3)n[nH]c2c1 [Axitinib] + CC(=O)c1c(C)c2cnc(Nc3ccc(N4CCNCC4)cn3)nc2n(C2CCCC2)c1=O [Palbociclib] (partner 0.5 µM)
In short: (§1)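 Dosing by pin tool came one day after lung cancer cell lines were seeded in 1536-well plates, using either one drug or a fixed anchor-drug dose plus five library-drug doses (not always all listed) in √10 steps. After 5 days, nuclei were counted on 4× images. Relative viability is treated-well nuclei count divided by vehicle-well nuclei count, and values are medians of duplicate plates.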

[1] = compound: CC1=CC=C(C=C1)C(=O)CN2C3=C(CCCC3)SC2=N [Pifithrin_alpha] + NC(=O)Nc1cc(-c2cccc(F)c2)sc1C(=O)N[C@H]1CCCNC1 [AZD7762] (partner 0.2 µM)
In short: as §1

[2] = compound: Nc1nc(Nc2ccc3c(c2)CC[C@@H](N2CCCC2)CC3)nn1-c1cc2c(nn1)-c1ccccc1CCC2 [Bemcentinib] + CC(=O)c1c(C)c2cnc(Nc3ccc(N4CCNCC4)cn3)nc2n(C2CCCC2)c1=O [Palbociclib] (partner 0.5 µM)
In short: as §1

Axitinib + Linsitinib = compound: CNC(=O)c1ccccc1Sc1ccc2c(/C=C/c3ccccn3)n[nH]c2c1 [Axitinib] + C[C@]1(O)C[C@@H](c2nc(-c3ccc4ccc(-c5ccccc5)nc4c3)c3c(N)nccn32)C1 [Linsitinib] (partner 1 µM)
In short: as §1

Cell Line	relative viability (Axitinib + Palbociclib; first compound 0.005 µM)	relative viability (Axitinib + Palbociclib; first compound 0.01581 µM)	relative viability (Axitinib + Palbociclib; first compound 0.05 µM)	relative viability (Axitinib + Palbociclib; first compound 0.1581 µM)	relative viability (Axitinib + Palbociclib; first compound 0.5 µM)	relative viability ([1]; first compound 1 µM)	relative viability ([1]; first compound 3.162 µM)	relative viability ([1]; first compound 10 µM)	relative viability ([1]; first compound 31.62 µM)	relative viability ([1]; first compound 100 µM)	relative viability ([2]; first compound 0.04 µM)	relative viability ([2]; first compound 0.1265 µM)	relative viability ([2]; first compound 0.4 µM)	relative viability ([2]; first compound 1.265 µM)	relative viability ([2]; first compound 4 µM)	relative viability (Axitinib + Linsitinib; first compound 0.005 µM)	relative viability (Axitinib + Linsitinib; first compound 0.01581 µM)	relative viability (Axitinib + Linsitinib; first compound 0.05 µM)	relative viability (Axitinib + Linsitinib; first compound 0.1581 µM)	relative viability (Axitinib + Linsitinib; first compound 0.5 µM)
HCC-15	0.764	0.766	0.749	0.703	0.65	1.28	1.27	1.03	1.1	1.3	0.767	0.976	0.739	0.728	0.737	0.959	0.879	0.88	0.838	0.895
IA-LM	–	–	–	–	–	–	–	–	–	–	–	–	–	–	–	0.546	0.437	0.564	0.665	0.542
NCI-H520	0.242	0.19	0.205	0.194	0.187	–	–	–	–	–	0.235	0.198	0.265	0.221	0.352	0.972	0.996	0.989	0.84	1.03
NCI-H522	0.892	0.966	1.01	1.05	0.915	0.835	1.11	0.851	0.799	0.802	0.834	1.04	1.07	1.1	0.915	–	–	–	–	–
NCI-H596	–	–	–	–	–	1.18	0.967	0.926	0.939	1.03	–	–	–	–	–	1.15	1.1	1.24	1.16	1.03
NCI-H661	0.412	0.392	0.424	0.405	0.428	–	–	–	–	–	0.384	0.385	0.439	0.375	0.382	0.717	0.58	0.418	0.542	0.666
NCI-H1299	–	–	–	–	–	–	–	–	–	–	–	–	–	–	–	0.962	1.03	0.978	1	1.06
NCI-H1563	–	–	–	–	–	–	–	–	–	–	–	–	–	–	–	1.23	1.11	1.12	0.99	1.22
NCI-H1648	0.215	0.291	0.219	0.273	0.235	0.607	0.959	0.836	0.582	0.504	0.255	0.236	0.276	0.297	0.291	–	–	–	–	–
NCI-H1650	0.423	0.322	0.412	0.313	0.486	–	–	–	–	–	0.324	0.366	0.307	0.354	0.373	–	–	–	–	–
NCI-H1703	–	–	–	–	–	–	0.139	0.101	0.182	0.109	–	–	–	–	–	0.888	0.461	0.12	0.148	0.164
NCI-H2009	0.257	0.295	0.203	0.233	0.255	–	–	–	–	–	0.185	0.21	0.225	0.239	0.261	1.23	1.18	1.21	1.28	1.36
NCI-H2023	0.393	0.447	0.363	0.34	0.412	–	–	–	–	–	0.416	0.398	0.388	0.437	0.425	0.687	0.635	0.698	0.636	0.736
NCI-H2170	0.494	0.438	0.385	0.444	0.435	0.899	0.91	0.733	0.613	0.783	0.394	0.415	0.395	0.422	0.407	–	–	–	–	–
NCI-H2228	0.926	0.664	0.615	0.614	0.882	–	–	–	–	–	0.268	0.827	0.844	0.836	0.997	0.674	0.625	0.633	0.735	0.58
NCI-H2342	0.503	0.524	0.536	0.614	0.485	0.421	0.541	0.51	0.525	0.492	0.605	0.614	0.562	0.575	0.529	–	–	–	–	–
SK-LU-1	0.433	0.406	0.38	0.368	0.355	–	–	–	–	–	0.338	0.446	0.393	0.487	0.37	1.25	1.28	1.18	1.17	1.36
SK-MES-1	0.309	0.332	0.347	0.344	0.353	–	–	–	–	–	0.314	0.33	0.325	0.316	0.317	1.12	1.07	1.08	1.14	1.22
SW 900	0.629	–	0.587	0.502	0.6	0.567	0.497	0.622	0.41	0.424	0.58	0.594	0.518	0.538	0.591	–	–	–	–	–
SW 1573	0.36	0.448	0.395	0.384	0.473	–	–	–	–	–	0.395	0.407	0.416	0.391	0.364	0.911	0.855	0.899	0.8	0.84
UMC-11	0.316	0.318	0.313	0.302	0.311	–	–	–	–	–	0.354	0.343	0.323	0.349	0.324	1.08	0.982	1.02	1.04	1.1

From the supplement of paper PMC10307832
